One compound from article PMC9067978, “Design, synthesis, and molecular docking studies of novel pomalidomide-based PROTACs as potential anti-cancer agents targeting EGFR^WT and EGFR^T790M” (Journal of Enzyme Inhibition and Medicinal Chemistry, 2022) can be followed below.

Assay [1] concerns the target T1, EGFR^T790M (Homo sapiens, UniProt P00533, T790M).
T1 construct: purchased Sigma
The assay is described as follows: EGFR^T790M kinase inhibitory assay (HTRF). Format: biochemical. The note with it: ATP 1.65 µM, mean ± S.D of three experiments, read-out: EGFR^790M IC50. Here is the method: (§1) This test used HTRF[44] assay with EGFR^WT and EGFR^T790M (Sigma). For the first 5 minutes, the evaluated compounds were incubated with EGFR^WT and/or EGFR^T790M and their substrates in the enzymatic buffer. […] The assay was performed at 37 °C for 30 minutes. The addition of EDTA-containing detection reagents halted the process. After one hour detection period, GraphPad Prism 5.0 was used to calculate the IC50 values. For each concentration, three separate trials were carried out.
(In TR-FRET formats the signal depends on donor and acceptor labels being close together.)

Assay [2] concerns HCT-116. The assay is described as follows: DNA-flow cytometric cell cycle analysis, HCT-116. The format is cell-based, human. The settings on record: 3.32 µM, 24 hours. The method, then: Then, the influence of compound 16 on the cell cycle profile was then investigated.
The cells that had been tested were then trypsinized and washed in sterilised phosphate buffer saline (PBS). The collected cells were fixed with cold ethanol (100%, 1.5 ml). According to the manufacturer’s instructions, a Cycle TESTTM PLUS DNA Reagent Kit was used to dye the cells (BD Biosciences, San Jose, CA). A flow cytometer was used to assess cell-cycle distribution.[52]

Assay [3] relates to HCT-116. The assay is described as follows: MTT anti-proliferative assay, HCT-116. (Tetrazolium assays rely on reduction of a dye to a coloured formazan, in cell work by metabolically active cells.)
Protocol: (§4) The anti-proliferative activity was quantified in the following way. At a density of 3–8 × 10^3 cells per well, human cancer cell lines were introduced to 96-well plates. The wells were then incubated at 37 °C for 12 hours in 5% CO2 incubator. To determine the DMSO content, the culture media was swapped with 0.1 ml of fresh medium containing graded amounts of the test compounds for each well. Incubation time for the wells was two days. The cells were then cultured in 100 µl MTT solution (5 µg ml^−1) for another 4 hours in each well.
(§5) The absorbance of each well was measured at 490 nm with an automated ELISA reader system (TECAN, CHE) after MTT-formazan crystals were dissolved in 100 µl of DMSO. The IC50 values were calculated using nonlinear regression fitting models (Graph Pad, Prism Version 5). The results were expressed as means ± SD and were based on the average of three separate, duplicate trials.
The target in assay [4] is T2, EGFR^WT (Homo sapiens, UniProt P00533).
T2 construct: purchased Sigma
The assay is described as follows: EGFR^WT kinase inhibitory assay (HTRF). The format is biochemical. The settings on record: ATP 1.65 µM, mean ± S.D of three experiments. The method, then:
as §1

Assay [5] relates to HepG-2. Nature of the assay: Annexin V/propidium iodide apoptosis assay, HepG-2. The format is cell-based, human. The note with it: 3.02 µM, 24 hours. Here is the method: (§2) The double staining Annexin V/propidium iodide technique was performed to assess the mechanism of cell death and apoptosis-inducing activity.[46] […] As shown in (Figure 7 (A and B).
(§3) The negative control was chosen to be DMSO. The cells were then collected and washed twice in PBS. The cells were separated using centrifugation. An apoptosis detection kit (BD Biosciences, SanJose, CA) was used in this investigation. Following the manufacturer’s instructions, the cells were dyed with Annexin V-FITC and propidium iodide (PI) in the binding buffer for 20 minutes at 37 °C in the darkness. A flow cytometer was used to assess the binding of Annexin V-FITC and PI. The frequencies in all quadrants were investigated using the Flowjo program.[53]

Assay [6] deals with HCT-116. The assay is described as follows: Annexin V/propidium iodide apoptosis assay, HCT-116. The format is cell-based, human. The note with it: 3.32 µM, 24 hours. Here is the method:
as §2, §3

The subject of assay [7] is EGFR phosphorylation. Nature of the assay: Western blotting, EGFR phosphorylation in A549 cells. The note with it: A549 cells, 0.1, 0.3 and 1 µM, erlotinib for comparison. The format is cell-based, human. The method, then:
At a concentration of 100 nM, the time-dependent degradation activities of compounds 15–21 were also examined (Figure 5(A)).
Figure 5. (A) EGFR time-dependent degradation by compound 16 in A549 cell lines. Cells were treated with100 nM of 15–21 for indicated time points. Western blotting was used to evaluate EGFR protein, and densitometry was used to measure EGFR degradation, which was adjusted to the density of β-actin protein (n ¼2). (B) Compounds 15 and 16 have EGFR degradation and phosphorylation inhibitory action in A549 cells. The cells were exposed to concentrations of 0.1, 0.3, and 1 µM. Erlotinib were utilised for comparison. […]
Cells were seeded in 6-well plates at 1 × 10^6 per well, incubated at 37 °C with 5% CO2 for 24 h before drug exposure. […] The results were detected by an enhanced chemiluminescence system (Mill-pore). […]

The subject of assay [8] is A549. The assay is described as follows: MTT anti-proliferative assay, A549.
Protocol: as §4, §5
The test system of assay [9] is HepG-2. The assay is described as follows: MTT anti-proliferative assay, HepG-2.
Protocol: as §4, §5
Assay [10] has as its system MCF-7. Nature of the assay: MTT anti-proliferative assay, MCF-7.
Protocol: as §4, §5
Where [11] appears, read: ratio of cytotoxic IC50 to erlotinib.

A word on the IC50: it is the concentration that gives 50% inhibition.

T1 sequence (P00533 25-1210 T790M): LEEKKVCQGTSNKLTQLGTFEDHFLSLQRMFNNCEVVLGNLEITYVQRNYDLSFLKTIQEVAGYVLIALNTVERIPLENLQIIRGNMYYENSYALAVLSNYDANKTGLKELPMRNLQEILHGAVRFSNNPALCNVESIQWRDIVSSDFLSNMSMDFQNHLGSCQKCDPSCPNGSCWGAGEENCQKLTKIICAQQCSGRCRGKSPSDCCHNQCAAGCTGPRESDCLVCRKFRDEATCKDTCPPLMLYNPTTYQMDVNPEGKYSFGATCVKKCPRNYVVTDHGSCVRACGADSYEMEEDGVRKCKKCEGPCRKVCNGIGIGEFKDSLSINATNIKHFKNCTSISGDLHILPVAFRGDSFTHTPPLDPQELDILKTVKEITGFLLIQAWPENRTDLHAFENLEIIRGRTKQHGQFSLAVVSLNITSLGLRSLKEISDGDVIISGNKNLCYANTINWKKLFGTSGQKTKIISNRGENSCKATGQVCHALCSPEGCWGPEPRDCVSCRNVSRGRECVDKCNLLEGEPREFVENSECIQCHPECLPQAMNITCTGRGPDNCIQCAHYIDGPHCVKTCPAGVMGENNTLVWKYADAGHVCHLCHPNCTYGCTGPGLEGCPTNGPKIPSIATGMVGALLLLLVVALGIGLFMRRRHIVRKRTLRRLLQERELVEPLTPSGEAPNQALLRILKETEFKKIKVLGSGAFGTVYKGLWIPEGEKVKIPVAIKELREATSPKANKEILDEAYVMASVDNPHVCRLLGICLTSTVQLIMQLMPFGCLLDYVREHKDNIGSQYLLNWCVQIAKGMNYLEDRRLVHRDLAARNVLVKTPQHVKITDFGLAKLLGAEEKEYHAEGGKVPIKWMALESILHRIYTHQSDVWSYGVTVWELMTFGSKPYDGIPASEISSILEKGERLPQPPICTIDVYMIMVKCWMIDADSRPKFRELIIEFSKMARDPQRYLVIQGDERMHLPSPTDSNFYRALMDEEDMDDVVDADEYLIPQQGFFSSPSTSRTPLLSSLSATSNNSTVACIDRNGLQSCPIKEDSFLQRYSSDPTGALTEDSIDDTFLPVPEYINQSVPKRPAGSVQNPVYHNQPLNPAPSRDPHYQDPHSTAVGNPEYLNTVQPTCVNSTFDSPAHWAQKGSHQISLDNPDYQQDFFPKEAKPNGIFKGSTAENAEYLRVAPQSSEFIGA
T2 sequence (P00533 25-1210): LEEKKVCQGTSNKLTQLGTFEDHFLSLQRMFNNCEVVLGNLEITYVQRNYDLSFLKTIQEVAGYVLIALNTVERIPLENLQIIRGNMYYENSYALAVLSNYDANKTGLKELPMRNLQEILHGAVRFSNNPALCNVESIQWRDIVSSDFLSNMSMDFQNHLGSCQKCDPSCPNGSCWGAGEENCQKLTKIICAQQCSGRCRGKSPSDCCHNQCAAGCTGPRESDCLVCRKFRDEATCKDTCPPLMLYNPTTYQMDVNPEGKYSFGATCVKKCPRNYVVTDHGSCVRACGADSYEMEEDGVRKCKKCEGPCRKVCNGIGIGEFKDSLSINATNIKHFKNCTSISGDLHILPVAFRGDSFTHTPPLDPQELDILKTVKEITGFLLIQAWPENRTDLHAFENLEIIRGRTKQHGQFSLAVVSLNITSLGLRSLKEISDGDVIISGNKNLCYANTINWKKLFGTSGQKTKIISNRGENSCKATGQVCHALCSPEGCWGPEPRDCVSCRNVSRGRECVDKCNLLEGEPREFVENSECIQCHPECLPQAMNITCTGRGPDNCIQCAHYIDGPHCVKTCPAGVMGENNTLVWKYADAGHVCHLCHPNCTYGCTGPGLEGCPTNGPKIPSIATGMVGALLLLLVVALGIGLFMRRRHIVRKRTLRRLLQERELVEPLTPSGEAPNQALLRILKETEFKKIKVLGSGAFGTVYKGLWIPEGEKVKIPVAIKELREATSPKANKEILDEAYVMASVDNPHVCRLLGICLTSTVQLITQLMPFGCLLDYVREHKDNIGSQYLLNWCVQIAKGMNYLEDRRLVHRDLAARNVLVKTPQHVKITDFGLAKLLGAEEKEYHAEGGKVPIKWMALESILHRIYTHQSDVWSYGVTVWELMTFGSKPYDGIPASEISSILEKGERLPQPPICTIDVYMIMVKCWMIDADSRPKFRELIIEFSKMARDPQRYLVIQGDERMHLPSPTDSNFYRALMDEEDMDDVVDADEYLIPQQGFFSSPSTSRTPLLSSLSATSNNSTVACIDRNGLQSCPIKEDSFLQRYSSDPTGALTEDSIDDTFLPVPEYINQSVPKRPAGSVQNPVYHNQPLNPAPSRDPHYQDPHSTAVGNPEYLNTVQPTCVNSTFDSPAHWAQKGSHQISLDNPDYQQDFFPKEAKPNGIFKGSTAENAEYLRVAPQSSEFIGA

As to `Cn1c(=O)c(C(=O)NNCCOCCOCC(=O)Nc2cccc3c2C(=O)N(C2CCC(=O)NC2=O)C3=O)nc2ccccc21` (stereo not shown) [Compound 16, N-(2-(2,6-dioxopiperidin-3-yl)-1,3-dioxoisoindolin-4-yl)-2-(2-(2-(2-(4-methyl-3-oxo-3,4-dihydroquinoxaline-2-carbonyl) hydrazinyl)ethoxy)ethoxy) acetamide], the IC50 in [1] is 4.02 ± 0.19 µM. In addition, in assay [2], the “fold increase of cells in G2-M phase vs control, HCT-116” value was found to be 1.49 fold and the “fold increase of cells in pre-G1 phase vs control, HCT-116” value worked out at 5.37 fold. For the same compound, the IC50 in assay [3] (Homo sapiens, HCT-116, read-out: IC50 HCT-116) came to 3.32 ± 0.15 µM. Further, the “folds more active than erlotinib, HCT-116” value in assay [3] (setting [11]) worked out at 5.04 folds. For the same compound, half-maximal inhibition in assay [4] (IC50) was put at 0.1 ± 0.03 µM. For the same compound, in assay [5], the “cellular apoptosis, early and late, folds vs control, HepG-2” value is around 13 folds; the “early apoptosis ratio, HepG-2” value is reported as 7.55%; the “late apoptosis ratio, HepG-2” value worked out at 5.53%. Moreover, in assay [6], the “cellular apoptosis, early and late, times vs control, HCT-116” value is around 9 times; the “early apoptosis ratio, HCT-116” value is listed as 5.96%; the “late apoptosis ratio, HCT-116” value is listed as 5.15%. The “inhibition of EGFR phosphorylation, in words” value in assay [7] was “effectively displayed inhibitory activity”. Moreover, the IC50 in assay [8] (Homo sapiens, A549, read-out: IC50 A549) came out at 2.69 ± 0.09 µM. In addition, the “folds more active than erlotinib, A549” value in assay [8] (setting [11]) came to 7.18 folds. Also, the half-maximal inhibitory concentration (IC50) in [9] (Homo sapiens, HepG2, read-out: IC50 HepG-2) is 3.02 ± 0.12 µM. Moreover, the “folds more active than erlotinib, HepG-2” value in [9] (setting [11]) turned out to be 4.34 folds. The IC50 in assay [10] (Homo sapiens, MCF7, read-out: IC50 MCF-7) was 3.92 ± 0.19 µM. Moreover, the “folds more active than erlotinib, MCF-7” value in assay [10] (setting [11]) is reported as 5.55 folds.
